This is an account of results in patent US10334849B2, “Salts of carboxylic acid herbicides” (Monsanto Technology LLC, priority 2011, dated 2019).

Data set [1] is described as follows: Tube test: dicamba volatilized from spray solution into air. The class given is physicochemical. To be noted: air about 35° C., about 40% RH, 24 hours. The procedure:
Volatility reduction may be quantified experimentally by methods known in the art. In one method the volatility of solutions containing a herbicide salt can be measured in the gas phase (air) via tube tests. In a tube test, a sample of the herbicide solution is placed in a test tube that has been modified to allow air flow through the tube. A selective collection medium is attached to the outlet of the tube to collect volatilized herbicide. The collection medium is then analyzed for the respective herbicide. For further details see the Tube Test Protocol described in Example 2.
(§1) In this example, various salts of dicamba prepared in Example 1 were selected for volatility testing. As described below, spray solutions containing the selected dicamba salts were prepared and subjected to volatility testing via the tube test and/or humidome protocols. Typically, the spray solutions containing the selected dicamba salts also contained potassium glyphosate co-herbicide. Aqueous test spray solutions containing selected salts of dicamba and potassium glyphosate were prepared by mixing a solution of dicamba salt with a solution of potassium glyphosate salt and adjusting the relative proportion and/or diluting with water to arrive at the desired concentration of dicamba and glyphosate.
To measure the dicamba concentration in the gas phase (air) volatilized from the spray solutions, 10 mL samples of each solution were placed into a 50 mL plastic centrifuge tube with one hole approximately ⅛ in (3.2 mm) diameter drilled into the tube at the mark between 20 mL and 30 mL lines. A 22 mm×30 mm polyurethane foam (PUF), cut from a 76 mm length, available from SKC Inc., catalog #P22692, was placed into a glass tube of approximately 20 mm diameter with parafilm wrapped around the outside to obtain a snug fit into the top of the centrifuge tube. A hose was connected to the other end of the glass tube leading to a vacuum line. The air flow was regulated to approximately 2 L/min using a flow controller. Air was pulled through the tube at approximately 2 L/min for 24 hours. Note that the air conditions of flow rate, temperature, pressure and composition (e.g., relative humidity) are not narrowly critical as long as the various samples are analyzed under similar conditions. For instance, air at from about 5° C. to about 40° C., from about 0.5 to about 1.5 bar pressure, from about 0% to about 95% relative humidity, and at a flow rate of from about 0.1 to 10 L/min-mL sample could be suitably used for volatility analysis. In this test, the air pulled through the tubes was at about 35° C. and about 40% relative humidity. The PUF was removed from the glass tube, extracted with 20 mL methanol and the resulting solution analyzed for dicamba concentration using liquid chromatography-mass spectroscopy (LC-MS) methods known in the art.
For comparison, samples of spray solutions containing 2 wt. % a.e. of the diglycolamine salt of dicamba (i.e., CLARITY) were also subjected to the tube test protocol.
(§2) The reduction in volatility is calculated relative to the volatility of the samples containing the diglycolamine salt of dicamba.

A short description of data set [2]: Humidome test: dicamba volatilized into air from spray solution applied to soil. The conditions noted are these: sprayed on soil at 10 GPA, 24 hours, vs CLARITY without glyphosate. The class given is physicochemical.
From the text: In another method, the volatility of solutions containing a herbicide salt can be evaluated by measuring herbicide concentrations in the gas phase (air) through air sampling in humidome plant growth chambers, which are maintained at constant temperature and humidity. For further details see the Humidome Protocol described in Example 2.
as §1
Humidomes were obtained from Hummert International (Part Nos 14-3850-2 for humidomes and 11-3050-1 for 1020 flat tray) and modified by cutting a 2.2 cm diameter hole on one end approximately 5 cm from the top to allow for insertion of a glass air sampling tube (22 mm OD) containing a polyurethane foam (PUF) filter. The sampling tube was secured with a VITON o-ring on each side of the humidome wall. The air sampling tube external to the humidome was fitted with tubing that was connected to a vacuum manifold immediately prior to sampling.
The flat tray beneath the humidome was filled with 1 liter of sifted dry or wet 50/50 soil (50% Redi-Earth and 50% US 10 Field Soil) to a depth of about 1 cm. To measure the dicamba concentration in the gas phase (air) volatilized from the spray solutions, samples of the spray solutions were sprayed over the soil in the humidome using a track sprayer at a rate of 10 gallons per acre (GPA). To avoid contamination of the sides of the flat tray, each tray was nested in an empty tray prior to spraying.
The flat tray bottom containing the dicamba formulation on soil was covered with a humidome lid and the lid was secured with clamps. The assembled humidomes were placed in a temperature and humidity controlled environment and connected to a vacuum manifold through the air sampling line. Air was drawn through the humidome and PUF at a rate of 2 liters per minutes (LPM) for 24 hours at which point the air sampling was stopped. The humidomes were then removed from the controlled environment and the PUF filter was removed. The PUF filter was extracted with 20 mL of methanol and the solution was analyzed for dicamba concentration using LC-MS methods known in the art.
For comparison, samples of spray solutions containing the diglycolamine salt of dicamba (i.e., CLARITY) at approximately the same weight percent a.e. as the tested dicamba salt sprays were subjected to the humidome tests.
as §2

The next data set has as its system velvetleaf (ABUTH). The conditions noted are these: 21 days after treatment. The method, then:
In this example, the herbicidal effectiveness of selected dicamba salts prepared in accordance with Example 1 was evaluated in greenhouse testing. The herbicidal effectiveness data set forth herein report “Weed killing efficacy” as a percentage following a standard procedure in the art which reflects a visual assessment of plant mortality and growth reduction by comparison with untreated plants, made by technicians specially trained to make and record such observations. Such measurements are relied upon and regularly reported by Monsanto Company in the course of its herbicide business.
The following procedure was used for testing compositions of this example to determine herbicidal effectiveness.
Seeds of velvetleaf (ABUTH) were planted in 85 mm square pots in a soil mix which was previously steam sterilized and prefertilized with a 14-14-14 NPK slow release fertilizer at a rate of 3.6 kg/m^3. The pots were placed in a greenhouse with sub-irrigation. About one week after emergence, seedlings were thinned as needed, including removal of any unhealthy or abnormal plants, to create a uniform series of test pots.
The plants were maintained for the duration of the test in the greenhouse where they received a minimum of 14 hours of light per day. If natural light was insufficient to achieve the daily requirement, artificial light with an intensity of approximately 475 microeinsteins was used to make up the difference. Exposure temperatures were not precisely controlled but averaged about 27° C. during the day and about 21° C. during the night. Plants were sub-irrigated throughout the test to ensure adequate soil moisture levels.
Application of herbicide salt solutions were made by spraying with a track sprayer fitted with a 9501E nozzle calibrated to deliver a spray volume of approximately 38 liters per hectare (l/ha). After treatment, pots were returned to the greenhouse until ready for evaluation.
For evaluation of herbicidal effectiveness, all plants in the test were examined by a single practiced technician, who recorded percent control, a visual measurement of the effectiveness of each treatment by comparison with untreated plants. […] Control of 85% or more is in most cases considered acceptable for normal herbicide use. […] The weed killing efficacy was evaluated 21 days after the treatment.

The mark [3] stands for this setting: dicamba salt 2 wt. % a.e., potassium glyphosate 6 wt. % a.e., vs 2 wt. % a.e. CLARITY without glyphosate.
Where [4] appears, read: dicamba salt 0.6 wt. % a.e., potassium glyphosate 0.9 wt. % a.e.
Setting [5] is: dicamba salt 0.6 wt. % a.e., potassium glyphosate 1.2 wt. % a.e.

Structures are written as SMILES. Where two headings read alike, the source gives them in different places.

For the molecule `C(CC1CCNCC1)CC1CCNCC1.COc1c(Cl)ccc(Cl)c1C(=O)O.COc1c(Cl)ccc(Cl)c1C(=O)O` [Salt 22], the “Volatility Reduction Over DGA Dicamba Spray (%) Tube Test” value in data set [1] (setting [3]) came to 60%. Also, the “Volatility Reduction Over DGA Dicamba Spray (%) Humidome Test” value in data set [2] (setting [4]) amounted to 68%.

As to `CCc1ncc[nH]1.COc1c(Cl)ccc(Cl)c1C(=O)O` [Salt 11], in data set [1] (setting [3]), the “Volatility Reduction Over DGA Dicamba Spray (%) Tube Test” value is listed as 67%. The results for the “Volatility Reduction Over DGA Dicamba Spray (%) Humidome Test” value in data set [2] (setting [4]) and in data set [2] (setting [5]) were 67% and 60%, respectively.

For the molecule `CN1CCN(C)CC1.COc1c(Cl)ccc(Cl)c1C(=O)O` [Salt 23], in data set [1] (setting [3]), the “Volatility Reduction Over DGA Dicamba Spray (%) Tube Test” value is 23%.

Consider `CCc1nc(C)c[nH]1.COc1c(Cl)ccc(Cl)c1C(=O)O` [Salt 10], for which the “Volatility Reduction Over DGA Dicamba Spray (%) Tube Test” value in data set [1] (setting [3]) is given as 72%; in data set [1] (dicamba salt 10 wt. % a.e., no potassium glyphosate, vs 2 wt. % a.e. CLARITY) it was 88%. Besides, the “Volatility Reduction Over DGA Dicamba Spray (%) Humidome Test” value in data set [2] (setting [4]) turned out to be 86%; in data set [2] (setting [5]), 85%; in data set [2] (dicamba salt 2.4 wt. % a.e., potassium glyphosate 4.8 wt. % a.e.), 86%.

Turning to `COc1c(Cl)ccc(Cl)c1C(=O)O.OCCN1CCNCC1` [Salt 4], in data set [1] (setting [3]), the “Volatility Reduction Over DGA Dicamba Spray (%) Tube Test” value is 69%.

As to `C1CCC(N2CCNCC2)CC1.COc1c(Cl)ccc(Cl)c1C(=O)O` [Salt 3], in data set [1] (setting [3]), the “Volatility Reduction Over DGA Dicamba Spray (%) Tube Test” value is given as 75%.

For `CC(C)CN1CCC(=O)CC1.COc1c(Cl)ccc(Cl)c1C(=O)O` [Salt 17], the “Volatility Reduction Over DGA Dicamba Spray (%) Tube Test” value in data set [1] (setting [3]) is on record as 57%.

`COc1c(Cl)ccc(Cl)c1C(=O)O.Cc1ncc[nH]1` [Salt 12]: the “Volatility Reduction Over DGA Dicamba Spray (%) Humidome Test” value was 46% in data set [2] (setting [4]) and 50% in data set [2] (setting [5]).

Regarding `CCN1CCNCC1.COc1c(Cl)ccc(Cl)c1C(=O)O` [Salt 6], the “Volatility Reduction Over DGA Dicamba Spray (%) Tube Test” value in data set [1] (setting [3]) is on record as 83%.

In the case of `CCc1nc(C)c[nH]1.COc1c(Cl)ccc(Cl)c1C(=O)O` [2-ethyl-4-methyl imidazolium dicamba], the entries for the “Weed killing efficacy (%)” value with velvetleaf (ABUTH) (application rate 140 g a.e./ha), in the data set with velvetleaf (ABUTH) (application rate 280 g a.e./ha) and with velvetleaf (ABUTH) (application rate 560 g a.e./ha) were 30.0%, 62.5% and 83.3%, respectively.

Take `CC(C)c1ncc[nH]1.COc1c(Cl)ccc(Cl)c1C(=O)O` [Salt 9]: in data set [1] (setting [3]), the “Volatility Reduction Over DGA Dicamba Spray (%) Tube Test” value worked out at 65%. The “Volatility Reduction Over DGA Dicamba Spray (%) Humidome Test” value in data set [2] (setting [4]) worked out at 63%; in data set [2] (setting [5]) it was 67%.

For the molecule `COc1c(Cl)ccc(Cl)c1C(=O)O.Cc1ncc[nH]1` [2-methyl imidazolium dicamba], the “Weed killing efficacy (%)” value is listed as 40.0% with velvetleaf (ABUTH) (application rate 140 g a.e./ha), 66.7% with velvetleaf (ABUTH) (application rate 280 g a.e./ha) and 85.0% in the data set on velvetleaf (ABUTH) (application rate 560 g a.e./ha).

Turning to `CCCN1CCC(=O)CC1.COc1c(Cl)ccc(Cl)c1C(=O)O` [Salt 16], in data set [1] (setting [3]), the “Volatility Reduction Over DGA Dicamba Spray (%) Tube Test” value came to 20%.

In the case of `CCc1ncc[nH]1.COc1c(Cl)ccc(Cl)c1C(=O)O` [2-ethyl imidazolium dicamba], the entries for the “Weed killing efficacy (%)” value in the data set on velvetleaf (ABUTH) (application rate 140 g a.e./ha), in the data set with velvetleaf (ABUTH) (application rate 280 g a.e./ha) and in the data set with velvetleaf (ABUTH) (application rate 560 g a.e./ha) were 38.3%, 67.5% and 80.8%, respectively.

As for `COc1c(Cl)ccc(Cl)c1C(=O)O.Cc1c[nH]c(-c2ccccc2)n1` [Salt 14], in data set [2] (setting [4]), the “Volatility Reduction Over DGA Dicamba Spray (%) Humidome Test” value is listed as 92%.

Regarding `COc1c(Cl)ccc(Cl)c1C(=O)O.OCCN1CCN(CCO)CC1` [Salt 24], in data set [1] (setting [3]), the “Volatility Reduction Over DGA Dicamba Spray (%) Tube Test” value is on record as 57%. The “Volatility Reduction Over DGA Dicamba Spray (%) Humidome Test” value in data set [2] (setting [4]) stood at 76%.

For the molecule `CCCCN1CCNCC1.COc1c(Cl)ccc(Cl)c1C(=O)O` [Salt 5], the “Volatility Reduction Over DGA Dicamba Spray (%) Tube Test” value in data set [1] (setting [3]) is 70%.

For the molecule `C1CCN(C2CCNCC2)CC1.COc1c(Cl)ccc(Cl)c1C(=O)O.COc1c(Cl)ccc(Cl)c1C(=O)O` [Salt 19], in data set [1] (setting [3]), the “Volatility Reduction Over DGA Dicamba Spray (%) Tube Test” value is 23%.
